Reference: EP3717657B1, “A SYSTEM FOR ASSESSING MICROBIAL SUSCEPTIBILITY TO ANTIBIOTIC AGENTS” (Ascilion AB, priority 2017, dated 2019)
≈ marks a conversion by molar mass, not a printed value.

Columns and labels:
[1] = system: Enterococcus faecalis (ATCC 29212); test: Antibiotic susceptibility by glucose consumption in culture medium, blood culture bottle inoculum (Example 1); format: cell-based; conditions: for Glucose concentration t=0: 0 minutes; for Glucose concentration t=60: 60 minutes; for Glucose concentration t=120: 120 minutes; for Glucose concentration t=180: 180 minutes; for Glucose concentration t=240: 240 minutes; for dC/dT: rate of change in glucose concentration;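 for dC/dT: rate calculated between the 60 and 180 min readings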
Description: (§1) Strains of Escherichia coli (ATCC 25922), Enterococcus faecalis (ATCC 29212) and Staphylococcus aureus (ATCC 29213) were inoculated in blood culture bottles (SVA, Uppsala, Sweden) and cultivated according to the manufacturer's instructions until positive.
(§2) Medium from each blood culture bottle was diluted 1:100 with cation adjusted Mueller-Hinton broth (SVA, Uppsala, Sweden) supplemented with glucose to a concentration of 1.0 mg/mL.
(§3) Table 1: Concentrations of antibiotic agents are given in µg/mL.
(§4) Glucose concentrations were measured at 0, 60, 120, 180, and 240 minutes using a WaveSense Jazz glucometer (AgaMatrix, Inc., Salem, NH, USA) with accompanying test strips.
(§5) Susceptibility scores corresponding to MIC values were calculated as described above. A 80% threshold was applied, i.e. the lowest concentration of antibiotic that entailed a rate of change in glucose concentration that was equal to or less than 80% of the reference was selected as the Minimal Inhibitory Concentration. The rate of change was calculated between the measurements at 60 and 180 minutes.

[2] = system: Staphylococcus aureus (ATCC 29213); test: as above; format: cell-based; conditions: for Glucose concentration t=0: 0 minutes; for Glucose concentration t=60: 60 minutes; for Glucose concentration t=120: 120 minutes; for Glucose concentration t=180: 180 minutes; for Glucose concentration t=240: 240 minutes; for dC/dT: rate of change in glucose concentration;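 for dC/dT: rate calculated between the 60 and 180 min readings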
Description: as §1, §2, §3, §4, §5

MIC ([1]; Enterococcus faecalis, ATCC29212, E.faecalis, initial value, disregarded because rate of decrease was higher at 32 µg/mL, read-out: MIC value initially obtained): 4 µg/mL (≈ 9.36 µM)
MIC ([2]; Staphylococcus aureus, ATCC29213, S.aureus, 80% threshold of rate of change vs reference, between 60 and 180 minutes, obtained in 4 hours, read-out: MIC Measured): 2 µg/mL (≈ 4.68 µM)
Structure (SMILES): CO[C@@]1(NC(=O)Cc2cccs2)C(=O)N2C(C(=O)O)=C(COC(N)=O)CS[C@@H]21 [Cefoxitin]
F=the rate of change in glucose concentration in relation to the reference ([1]; [Ab] 0,5 µg/mL): 88%
Glucose concentration t=0 ([1]; [Ab] 0,5 µg/mL): 145
Glucose concentration t=60 ([1]; [Ab] 0,5 µg/mL): 150
Glucose concentration t=120 ([1]; [Ab] 0,5 µg/mL): 144
Glucose concentration t=180 ([1]; [Ab] 0,5 µg/mL): 87
Glucose concentration t=240 ([1]; [Ab] 0,5 µg/mL): 32
dC/dT ([1]; [Ab] 0,5 µg/mL): 32
F=the rate of change in glucose concentration in relation to the reference ([1]; [Ab] 0,25 µg/mL): 93%
Glucose concentration t=0 ([1]; [Ab] 0,25 µg/mL): 151
Glucose concentration t=60 ([1]; [Ab] 0,25 µg/mL): 155
Glucose concentration t=120 ([1]; [Ab] 0,25 µg/mL): 138
Glucose concentration t=180 ([1]; [Ab] 0,25 µg/mL): 88
Glucose concentration t=240 ([1]; [Ab] 0,25 µg/mL): 34
dC/dT ([1]; [Ab] 0,25 µg/mL): 34
F=the rate of change in glucose concentration in relation to the reference ([1]; [Ab] 1 µg/mL): 85%
Glucose concentration t=0 ([1]; [Ab] 1 µg/mL): 148
Glucose concentration t=60 ([1]; [Ab] 1 µg/mL): 159
Glucose concentration t=120 ([1]; [Ab] 1 µg/mL): 142
Glucose concentration t=180 ([1]; [Ab] 1 µg/mL): 98
Glucose concentration t=240 ([1]; [Ab] 1 µg/mL): 31
dC/dT ([1]; [Ab] 1 µg/mL): 31
F=the rate of change in glucose concentration in relation to the reference ([1]; [Ab] 2 µg/mL): 99%
Glucose concentration t=0 ([1]; [Ab] 2 µg/mL): 149
Glucose concentration t=60 ([1]; [Ab] 2 µg/mL): 169
Glucose concentration t=120 ([1]; [Ab] 2 µg/mL): 145
Glucose concentration t=180 ([1]; [Ab] 2 µg/mL): 98
Glucose concentration t=240 ([1]; [Ab] 2 µg/mL): 36
dC/dT ([1]; [Ab] 2 µg/mL): 36
F=the rate of change in glucose concentration in relation to the reference ([1]; [Ab] 4 µg/mL): 74%
Glucose concentration t=0 ([1]; [Ab] 4 µg/mL): 150
Glucose concentration t=60 ([1]; [Ab] 4 µg/mL): 159
Glucose concentration t=120 ([1]; [Ab] 4 µg/mL): 146
Glucose concentration t=180 ([1]; [Ab] 4 µg/mL): 106
Glucose concentration t=240 ([1]; [Ab] 4 µg/mL): 27
dC/dT ([1]; [Ab] 4 µg/mL): 27
F=the rate of change in glucose concentration in relation to the reference ([1]; [Ab] 8 µg/mL): 63%
Glucose concentration t=0 ([1]; [Ab] 8 µg/mL): 144
Glucose concentration t=60 ([1]; [Ab] 8 µg/mL): 149
Glucose concentration t=120 ([1]; [Ab] 8 µg/mL): 147
Glucose concentration t=180 ([1]; [Ab] 8 µg/mL): 104
Glucose concentration t=240 ([1]; [Ab] 8 µg/mL): 23
dC/dT ([1]; [Ab] 8 µg/mL): 23
F=the rate of change in glucose concentration in relation to the reference ([1]; [Ab] 16 µg/mL): 68%
Glucose concentration t=0 ([1]; [Ab] 16 µg/mL): 148
Glucose concentration t=60 ([1]; [Ab] 16 µg/mL): 154
Glucose concentration t=120 ([1]; [Ab] 16 µg/mL): 148
Glucose concentration t=180 ([1]; [Ab] 16 µg/mL): 105
Glucose concentration t=240 ([1]; [Ab] 16 µg/mL): 25
dC/dT ([1]; [Ab] 16 µg/mL): 25
F=the rate of change in glucose concentration in relation to the reference ([1]; [Ab] 32 µg/mL): 74%
Glucose concentration t=0 ([1]; [Ab] 32 µg/mL): 148
Glucose concentration t=60 ([1]; [Ab] 32 µg/mL): 155
Glucose concentration t=120 ([1]; [Ab] 32 µg/mL): 140
Glucose concentration t=180 ([1]; [Ab] 32 µg/mL): 102
Glucose concentration t=240 ([1]; [Ab] 32 µg/mL): 27
dC/dT ([1]; [Ab] 32 µg/mL): 27
F=the rate of change in glucose concentration in relation to the reference ([2]; [Ab] 0,5 µg/mL): 96%
Glucose concentration t=0 ([2]; [Ab] 0,5 µg/mL): 144
Glucose concentration t=60 ([2]; [Ab] 0,5 µg/mL): 155
Glucose concentration t=120 ([2]; [Ab] 0,5 µg/mL): 130
Glucose concentration t=180 ([2]; [Ab] 0,5 µg/mL): 91
Glucose concentration t=240 ([2]; [Ab] 0,5 µg/mL): 32
dC/dT ([2]; [Ab] 0,5 µg/mL): 32
F=the rate of change in glucose concentration in relation to the reference ([2]; [Ab] 0,25 µg/mL): 91%
Glucose concentration t=0 ([2]; [Ab] 0,25 µg/mL): 143
Glucose concentration t=60 ([2]; [Ab] 0,25 µg/mL): 152
Glucose concentration t=120 ([2]; [Ab] 0,25 µg/mL): 132
Glucose concentration t=180 ([2]; [Ab] 0,25 µg/mL): 91
Glucose concentration t=240 ([2]; [Ab] 0,25 µg/mL): 33
dC/dT ([2]; [Ab] 0,25 µg/mL): 31
F=the rate of change in glucose concentration in relation to the reference ([2]; [Ab] 1 µg/mL): 82%
Glucose concentration t=0 ([2]; [Ab] 1 µg/mL): 147
Glucose concentration t=60 ([2]; [Ab] 1 µg/mL): 155
Glucose concentration t=120 ([2]; [Ab] 1 µg/mL): 133
Glucose concentration t=180 ([2]; [Ab] 1 µg/mL): 100
Glucose concentration t=240 ([2]; [Ab] 1 µg/mL): 40
dC/dT ([2]; [Ab] 1 µg/mL): 28
F=the rate of change in glucose concentration in relation to the reference ([2]; [Ab] 2 µg/mL): 72%
Glucose concentration t=0 ([2]; [Ab] 2 µg/mL): 141
Glucose concentration t=60 ([2]; [Ab] 2 µg/mL): 146
Glucose concentration t=120 ([2]; [Ab] 2 µg/mL): 143
Glucose concentration t=180 ([2]; [Ab] 2 µg/mL): 98
Glucose concentration t=240 ([2]; [Ab] 2 µg/mL): 61
dC/dT ([2]; [Ab] 2 µg/mL): 24
F=the rate of change in glucose concentration in relation to the reference ([2]; [Ab] 4 µg/mL): 16%
Glucose concentration t=0 ([2]; [Ab] 4 µg/mL): 142
Glucose concentration t=60 ([2]; [Ab] 4 µg/mL): 150
Glucose concentration t=120 ([2]; [Ab] 4 µg/mL): 143
Glucose concentration t=180 ([2]; [Ab] 4 µg/mL): 139
Glucose concentration t=240 ([2]; [Ab] 4 µg/mL): 139
dC/dT ([2]; [Ab] 4 µg/mL): 6
F=the rate of change in glucose concentration in relation to the reference ([2]; [Ab] 8 µg/mL): 24%
Glucose concentration t=0 ([2]; [Ab] 8 µg/mL): 136
Glucose concentration t=60 ([2]; [Ab] 8 µg/mL): 157
Glucose concentration t=120 ([2]; [Ab] 8 µg/mL): 160
Glucose concentration t=180 ([2]; [Ab] 8 µg/mL): 141
Glucose concentration t=240 ([2]; [Ab] 8 µg/mL): 149
dC/dT ([2]; [Ab] 8 µg/mL): 8
F=the rate of change in glucose concentration in relation to the reference ([2]; [Ab] 16 µg/mL): 22%
Glucose concentration t=0 ([2]; [Ab] 16 µg/mL): 140
Glucose concentration t=60 ([2]; [Ab] 16 µg/mL): 157
Glucose concentration t=120 ([2]; [Ab] 16 µg/mL): 152
Glucose concentration t=180 ([2]; [Ab] 16 µg/mL): 142
Glucose concentration t=240 ([2]; [Ab] 16 µg/mL): 142
dC/dT ([2]; [Ab] 16 µg/mL): 8
F=the rate of change in glucose concentration in relation to the reference ([2]; [Ab] 32 µg/mL): 27%
Glucose concentration t=0 ([2]; [Ab] 32 µg/mL): 145
Glucose concentration t=60 ([2]; [Ab] 32 µg/mL): 154
Glucose concentration t=120 ([2]; [Ab] 32 µg/mL): 145
Glucose concentration t=180 ([2]; [Ab] 32 µg/mL): 136
Glucose concentration t=240 ([2]; [Ab] 32 µg/mL): 139
dC/dT ([2]; [Ab] 32 µg/mL): 9
